Source: patent US7855174B2 (priority 2007, dated 2010)
Like-named read-outs stand apart in the source and are kept apart here.

Key:
rat mesenteric arteries = assay: tissue or blood
MLC = tested on: MLC; design: species or system rat

**Q.** With `NC[C@H](O)c1ccc(O)c(O)c1` [NE, norepinephrine] as the molecule, how does the EC50 (rat mesenteric arteries; read-out: EC50 of concentration-contraction relationship) read?
**A.** Its EC50 is 1100 nM.

**Q.** And the EC50 (rat mesenteric arteries; read-out: apparent EC50 for NE (contraction))?
**A.** The EC50 was 34 nM.

**Q.** What about the EC50 (rat mesenteric arteries; read-out: approximate EC50 in isolated vessels) of the same molecule?
**A.** Its EC50 is about 1000 nM.

**Q.** What about the “change of Ser19 pMLC and total pMLC with concentration” value (MLC) of the same molecule?
**A.** The value was “increases in both total pMLC and Ser19 pMLC”.
